One may read the inhibition in vivo as the change of the read-out against control, counted positive when it falls.

This test has as its system PCA response. Put plainly: Rat Passive Cutaneous Anaphylaxis (PCA) test. In kind it is in vivo, Wistar rats. The conditions noted are these: iv. Here is the method:
All of the 2-nitro indane-1,3-diones prepared in the preceeding Examples were submitted for biological testing. The test system was the Rat Passive Cutaneous Anaphylaxis (PCA) test described below in (II).
7, 681Serum containing heat labile homocytotropic antibody was raised in rats by a method similar to that used by Mota. (I. Mota Immunology 1964, 7, 681).
Male Wistar rats of 250-300g, were injected intraperitoneally with 0.5ml. of Bordetella pertussis vaccine (containing 4 × 10^10 dead oranism per ml. and subcutaneously with 0.5ml. of an emulsion of 100mg. of ovalbumin in 2ml of saline and 3ml of incomplete Freunds' adjuvant. Rats were bled by cardiac puncture on day 18, the blood was pooled and separated and serum stored at -20° and thawed only once before use.
II. The P.C.A. test was similar to that described by Ovary and Bier (A. Ovary and O. E. Bier. Proc. Soc. Exp. Biol. Med. 1952, 81, 584) and Goose and Blair (J. Goose and A. M. J. N Blair Immunology 1969, 16, 749).
0.1ml of each of six twofold serial dilutions of the serum in 0.9% saline were injected intradermally into separate sites on the shaved dorsal surface of 250-350g. Wistar rats. 72 hours later the animals were challenged by i.v. injection of 0.3ml of 1% ovalbumin mixed with 0.1ml of a 5% solution of pontamine sky blue dye both in isotonic saline buffered with pH. 7.2 Sorenson buffer (P.B.S.). The rats were killed after 20 minutes and the diameter of the blue wheals at the antibody injection sites were measured. The starting dilution of the serum was adjusted so that there was no response, after challenge, at the site of injection of the highest dilution and a maximum response at the lowest dilution. Typically six twofold serial dilutions of the serum from one-fourth to […] were used.
Compounds were tested for their ability to reduce the diameter of the wheals at the injection sites of dilutions of antibody which on all the controls have less than maximum response. Amounts of the compounds were administered to rats each amount to a test group of six animals at a specified time prior to intravenous challenge with ovalbumin. The diameters of the blue wheals which developed on the test group of animals were compared with those on a control group of six animals treated in the same way as the test group, but which had not received the compound under test.
% Inhibition of P.C.A. = 100 (1 - a/b)
a = The mean of the sum of the diameters of the wheals produced in the test group of animals at those antibody sites where all the control group of animals gave less than maximum response.
b = The mean of the sum of diameters of the wheals produced in the control group of animals at those antibody sites where all the animals in the group gave less than maximum response.
The preferred method of administration was as a solution of the test compound dissolved in pH 7.2 buffer and neutralised with sodium bicarbonate. For those compounds having insoluble sodium salts, the salts were isolated by reaction of the free nitro compound with 2.5N sodium hydroxide and the filtered sodium salt washed free of alkali with water. The dried salts were then administered as a suspension in 1% methyl cellulose.

Setting [1] is: 0 h, Time 0 mins (prior to i.v. ovalbumin challenge).
Setting [2] is: 0.5 h, Time 30 mins (prior to i.v. ovalbumin challenge).
Setting [3] is: 1 h, Time 60 mins (prior to i.v. ovalbumin challenge).

For the molecule `CC1=C(C)C[C@H]2C(=O)C([N+](=O)[O-])C(=O)[C@H]2C1` (relative stereo) [1(b), 5,6-Dimethyl-2-nitro cis-3a,4,7,7a-tetrahydroindane-1,3-dione], under setting [1], the inhibition in vivo at 25 mg/kg is 16% and the inhibition in vivo at 100 mg/kg amounted to 61%. Besides, under setting [2], the inhibition in vivo at 25 mg/kg is 6% and the inhibition in vivo at 100 mg/kg was 42%.

With `O=C(O)C1C=CC[C@@H]2C(=O)C([N+](=O)[O-])C(=O)[C@H]12` (stereo partly drawn) [5(b), 4-Carboxy-2-nitro cis-3a,4,7,7a-tetrahydroindane-1,3-dione], the inhibition in vivo at 25 mg/kg under setting [1] is 2% and the inhibition in vivo at 25 mg/kg under setting [2] was -1%. The inhibition in vivo at 100 mg/kg under setting [1] was -3% and the inhibition in vivo at 100 mg/kg under setting [2] is -6%.

For `O=C1C2C3CCC(C3)C2C(=O)C1[N+](=O)[O-]` (stereo not shown) [7(b), 4-Nitro tricyclo [5,2,1,0^2,6] decane-3,5-dione], under setting [1], the inhibition in vivo at 25 mg/kg came out at 8% and the inhibition in vivo at 100 mg/kg was 26%. In addition, under setting [2], the inhibition in vivo at 25 mg/kg is -3% and the inhibition in vivo at 100 mg/kg amounted to 9%.

With `CC1CCC[C@@H]2C(=O)C([N+](=O)[O-])C(=O)[C@H]12` (stereo partly drawn) [II(b), 4-Methyl-2-nitro-cis-hexahydroindane-1,3-dione], under setting [1], the inhibition in vivo at 25 mg/kg is -13% and the inhibition in vivo at 100 mg/kg was determined as 11%. For the same molecule, under setting [2], the inhibition in vivo at 25 mg/kg is -8% and the inhibition in vivo at 100 mg/kg was determined as 17%.

Consider `CC1C=CC(C)[C@@H]2C(=O)C([N+](=O)[O-])C(=O)[C@H]12` (stereo partly drawn) [3(b), 4,7-Dimethyl-2-nitro cis-3a,4,7,7a-tetrahydroindane-1,3-dione], for which, under setting [1], the inhibition in vivo at 25 mg/kg is -8% and the inhibition in vivo at 100 mg/kg is -8%. Moreover, under setting [2], the inhibition in vivo at 25 mg/kg was 7% and the inhibition in vivo at 100 mg/kg was -1%.

Turning to `O=C1C2C3C=CC(CC3)C2C(=O)C1[N+](=O)[O-]` (stereo not shown) [12(b), 4-Nitro tricyclo [5,2,2,0^2,6] undec-8-ene-3,5-dione], under setting [1], the inhibition in vivo at 25 mg/kg came to 0% and the inhibition in vivo at 100 mg/kg was -3%. Under setting [2], the inhibition in vivo at 25 mg/kg is 29% and the inhibition in vivo at 100 mg/kg is 32%.

With `CC(=O)OC1CCC[C@@H]2C(=O)C([N+](=O)[O-])C(=O)[C@H]12` (stereo partly drawn) [10(b), 4-Acetoxy-cis-hexahydro-2-nitro-indane-1,3-dione], the inhibition in vivo at 25 mg/kg reads like this: under setting [1], 12%; under setting [2], 17%. The inhibition in vivo at 100 mg/kg is, setting by setting: under setting [1], 11%; under setting [2], 20%.

Regarding `CC1C=CC[C@@H]2C(=O)C([N+](=O)[O-])C(=O)[C@H]12` (stereo partly drawn) [8(b), 4-Methyl-2-nitro-cis-3a,4,7,7a-tetrahydroindane-1,3-dione], the inhibition in vivo at 25 mg/kg amounted to 12% under setting [1] and 13% under setting [2]. Besides, the inhibition in vivo at 100 mg/kg under setting [1] came out at 41% and the inhibition in vivo at 100 mg/kg under setting [2] was 52%.

Consider `CC1CCC(C)[C@@H]2C(=O)C([N+](=O)[O-])C(=O)[C@H]12` (stereo partly drawn) [4(b), 4,7-Dimethyl cis-hexahydro-2-nitro indane-1,3-dione], for which, under setting [1], the inhibition in vivo at 25 mg/kg is 4% and the inhibition in vivo at 100 mg/kg was found to be 19%. Also, under setting [3], the inhibition in vivo at 25 mg/kg came to 13% and the inhibition in vivo at 100 mg/kg turned out to be 11%.

For the molecule `O=C1C2C3CCC(CC3)C2C(=O)C1[N+](=O)[O-]` (stereo not shown) [13(b), 4-Nitro tricyclo [5,2,2,0^2,6] undecane-3,5-dione], under setting [1], the inhibition in vivo at 25 mg/kg was found to be 14% and the inhibition in vivo at 100 mg/kg worked out at 8%. Besides, under setting [2], the inhibition in vivo at 25 mg/kg worked out at 13% and the inhibition in vivo at 100 mg/kg turned out to be 29%.

With `COC(=O)C1C=CC[C@@H]2C(=O)C([N+](=O)[O-])C(=O)[C@H]12` (stereo partly drawn) [9(b), 4-Carbomethoxy-2-nitro-cis-3a, 4,7,7a-tetrahydroindane-1,3-dione], the inhibition in vivo at 25 mg/kg is 2% under setting [1] and -9% under setting [2]. Besides, the inhibition in vivo at 100 mg/kg runs as follows: under setting [1], 10%; under setting [2], -5%.

Regarding `CC1C[C@@H]2C(=O)C([N+](=O)[O-])C(=O)[C@@H]2CC1C` (stereo partly drawn) [2(b), 5,6-Dimethyl cis-hexahydro-2-nitro indane-1,3-dione], under setting [1], the inhibition in vivo at 25 mg/kg amounted to 7% and the inhibition in vivo at 100 mg/kg stood at 31%. In addition, under setting [2], the inhibition in vivo at 25 mg/kg stood at 6% and the inhibition in vivo at 100 mg/kg was found to be 37%.

In the case of `O=C1C2C3C=CC(C3)C2C(=O)C1[N+](=O)[O-]` (stereo not shown) [6(b), 4-Nitro tricyclo [5,2,1,0^2,6] dec-8-ene-3,5-dione], under setting [1], the inhibition in vivo at 25 mg/kg is -9% and the inhibition in vivo at 100 mg/kg turned out to be 4%. Further, under setting [3], the inhibition in vivo at 25 mg/kg was -9% and the inhibition in vivo at 100 mg/kg stood at 17%.

(Values after patent US4005219A, “Pharmaceutical compositions and their administration for the prophylaxis of asthma, hayfever and rhinitis” (Beecham Group Limited, priority 1974, dated 1977).)
